One compound from article PMC3885398, “Evaluation of the Antitumor Effects of BPR1J-340, a Potent and Selective FLT3 Inhibitor, Alone or in Combination with an HDAC Inhibitor, Vorinostat, in AML Cancer” (PLoS ONE, 2014) can be followed below.

By inhibition is commonly meant the change of the read-out against control, counted positive when it falls. A higher inhibition goes with a strong effect. In general, IC50 refers to the concentration at which inhibition is half-maximal. A low value points to inhibition by little substance.

The target in one experiment is CSF1R (FMS) (Homo sapiens, UniProt P07333). As to the kind of experiment: Invitrogen SelectScreen kinase profiling / IC50. It is filed as biochemical. As for the experimental part: (§1) The FLT3 and VEGFR1/2 Kinase-Glo kinase assays were performed as reported by our earlier study. The VEGFR3 activity analysis was conducted using the same protocol described in the VEGFR1/2 assay. The kinase inhibition profiling and inhibitory activity of FLT3-D835Y, CSF1R, and TRKA were determined by Invitrogen SelectScreen® kinase profiling service (Carlsbad, California, USA).
(§2) BPR1J-340, a urea-substituted 3-phenyl-1H-5-pyrazolylamine-based compound, was designed through chemical modification of sulfonamide series of derivatives (BPR1J-097 series) by a structure-activity relationship (SAR) study (Fig. 1), [32]. For kinase inhibition specificity screening, BPR1J-340 was tested against 59 protein kinases covering the major oncogenic kinases of human protein kinome. […] In addition, BPR1J-340 inhibited TRKA, which is associated with the growth and metastasis of breast cancers, with an IC50 value of 8 nM. Given the high similarity of the ATP binding pockets of FLT3 and the Aurora kinases, the inhibitory activity toward Aurora A and Aurora B were measured. […] Taken together, BPRJ-340 is a selective kinase inhibitor with in vitro activity against FLT3, VEGFR2, VEGFR3 and TRKA receptor tyrosine kinases.

The target of a further experiment is T1, FLT3 D835Y (Homo sapiens, UniProt P36888, D835Y).
T1 sequence (P36888 27-993 D835Y): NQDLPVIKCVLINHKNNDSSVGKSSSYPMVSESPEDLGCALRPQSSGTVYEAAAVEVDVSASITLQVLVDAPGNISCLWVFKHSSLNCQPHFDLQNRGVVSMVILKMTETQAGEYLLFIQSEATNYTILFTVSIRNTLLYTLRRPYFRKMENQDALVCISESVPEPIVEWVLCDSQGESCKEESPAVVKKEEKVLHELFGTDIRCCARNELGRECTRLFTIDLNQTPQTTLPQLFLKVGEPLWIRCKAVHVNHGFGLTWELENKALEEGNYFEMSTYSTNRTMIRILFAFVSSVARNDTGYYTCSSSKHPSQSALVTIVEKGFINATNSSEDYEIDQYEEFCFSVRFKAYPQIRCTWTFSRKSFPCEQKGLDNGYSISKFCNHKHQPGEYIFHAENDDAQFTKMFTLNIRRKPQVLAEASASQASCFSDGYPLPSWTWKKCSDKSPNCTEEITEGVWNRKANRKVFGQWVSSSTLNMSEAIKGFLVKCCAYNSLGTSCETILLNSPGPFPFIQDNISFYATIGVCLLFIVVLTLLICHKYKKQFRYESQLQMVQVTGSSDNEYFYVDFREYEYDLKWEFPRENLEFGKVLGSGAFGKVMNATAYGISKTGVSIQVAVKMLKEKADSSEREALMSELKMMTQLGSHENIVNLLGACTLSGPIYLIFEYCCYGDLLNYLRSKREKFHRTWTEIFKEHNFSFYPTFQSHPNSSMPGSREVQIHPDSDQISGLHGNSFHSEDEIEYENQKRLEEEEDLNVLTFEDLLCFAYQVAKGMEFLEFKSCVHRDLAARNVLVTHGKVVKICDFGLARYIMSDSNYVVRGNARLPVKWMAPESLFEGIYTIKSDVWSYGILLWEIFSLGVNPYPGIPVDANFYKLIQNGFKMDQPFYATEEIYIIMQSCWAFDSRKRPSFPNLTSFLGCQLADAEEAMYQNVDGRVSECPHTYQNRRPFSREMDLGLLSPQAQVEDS
As to the kind of experiment: Invitrogen SelectScreen kinase profiling / IC50. Format: biochemical. As for the experimental part:
as §1, §2

The next experiment concerns the target NTRK1 (TRKA) (Homo sapiens, UniProt P04629). As to the kind of experiment: Invitrogen SelectScreen kinase profiling / IC50. Format: biochemical. As for the experimental part:
as §1, §2

For a further experiment, the system named is A431. Nature of the experiment: Cell viability MTS assay. Format: cell-based. The settings on record: Homo sapiens, A-431; A431, non-leukemia; read-out: Proliferation GI50. The protocol:
(§3) Cell viability was assessed with an MTS assay as carried out as the method described previously. Cells were seeded in 96-well plates at a density of 10,000 cells per well for 16 hours and then treated with vehicle or various concentrations of compound in medium. The change in viable cells was quantitated using the MTS method (Promega, Madison, WI, USA) according to the manufacturer's recommended protocol or by cell counting under a microscope. The GC50 value was defined as the amount of compound that caused a 50% reduction in cell viability in comparison with DMSO-treated (vehicle) control and was calculated using Prism version 4 software (Graph-Pad Software, Inc., San Diego, CA, USA). The data are presented as the mean ± S.D. from three independent experiments. Cell growth were measured by trypan blue dye exclusion method. Cells (1×10^4 mL^−1) were cultured in 12-well plates for 24 hours and then treated with different amounts of test compound and the same volumes of vehicle for 72 hours. The number of viable cells was counted by trypan blue dye staining using a hemocytometer at the indicated time point after drug treatment. The result was expressed as the mean ± S.D. from triplicate determinations.
(In general: Tetrazolium dyes change colour on reduction, which living cells bring about.)

The next experiment relates to Detroit551. As to the kind of experiment: Cell viability MTS assay. Particulars: Homo sapiens, Detroit 551; Detroit551, non-leukemia; read-out: Proliferation GI50. It is filed as cell-based. As for the experimental part: as §3
Another experiment concerns H1975. Nature of the experiment: Cell viability MTS assay. Format: cell-based. Particulars: Homo sapiens, NCI-H1975; H1975, non-leukemia; read-out: Proliferation GI50. The protocol:
as §3

The test system of the next experiment is H2228. Nature of the experiment: Cell viability MTS assay. The settings on record: Homo sapiens, NCI-H2228; H2228, non-leukemia; read-out: Proliferation GI50. Format: cell-based. As for the experimental part:
as §3

In a further experiment the test system is HCC827. As to the kind of experiment: Cell viability MTS assay. Format: cell-based. The settings on record: Homo sapiens; HCC827, non-leukemia; read-out: Proliferation GI50. The protocol: as §3
The next experiment has as its system HCT-116. As to the kind of experiment: Cell viability MTS assay. It is filed as cell-based. The settings on record: Homo sapiens; HCT-116, non-leukemia; read-out: Proliferation GI50. The protocol:
as §3

The subject of the next experiment is Huh7. As to the kind of experiment: Cell viability MTS assay. Format: cell-based. The settings on record: Homo sapiens, Huh-7; Huh7, non-leukemia; read-out: Proliferation GI50. As for the experimental part:
as §3

A further experiment has as its system K562. Nature of the experiment: Cell viability MTS assay. Format: cell-based. Particulars: Homo sapiens; K562, leukemia; read-out: Proliferation GI50. As for the experimental part:
as §3

A further experiment has as its system MCF-7. Nature of the experiment: Cell viability MTS assay. Particulars: Homo sapiens, MCF7; MCF-7, non-leukemia; read-out: Proliferation GI50. It is filed as cell-based. As for the experimental part:
as §3

The next experiment has as its system NCIH460. Nature of the experiment: Cell viability MTS assay. Particulars: Homo sapiens, NCI-H460; NCIH460, non-leukemia; read-out: Proliferation GI50. It is filed as cell-based. As for the experimental part: as §3
Another experiment relates to RT4. Nature of the experiment: Cell viability MTS assay. It is filed as cell-based. Particulars: Homo sapiens, RT-4; RT4, non-leukemia; read-out: Proliferation GI50. As for the experimental part: as §3

Sequence of NTRK1 (TRKA) (P04629 33-796): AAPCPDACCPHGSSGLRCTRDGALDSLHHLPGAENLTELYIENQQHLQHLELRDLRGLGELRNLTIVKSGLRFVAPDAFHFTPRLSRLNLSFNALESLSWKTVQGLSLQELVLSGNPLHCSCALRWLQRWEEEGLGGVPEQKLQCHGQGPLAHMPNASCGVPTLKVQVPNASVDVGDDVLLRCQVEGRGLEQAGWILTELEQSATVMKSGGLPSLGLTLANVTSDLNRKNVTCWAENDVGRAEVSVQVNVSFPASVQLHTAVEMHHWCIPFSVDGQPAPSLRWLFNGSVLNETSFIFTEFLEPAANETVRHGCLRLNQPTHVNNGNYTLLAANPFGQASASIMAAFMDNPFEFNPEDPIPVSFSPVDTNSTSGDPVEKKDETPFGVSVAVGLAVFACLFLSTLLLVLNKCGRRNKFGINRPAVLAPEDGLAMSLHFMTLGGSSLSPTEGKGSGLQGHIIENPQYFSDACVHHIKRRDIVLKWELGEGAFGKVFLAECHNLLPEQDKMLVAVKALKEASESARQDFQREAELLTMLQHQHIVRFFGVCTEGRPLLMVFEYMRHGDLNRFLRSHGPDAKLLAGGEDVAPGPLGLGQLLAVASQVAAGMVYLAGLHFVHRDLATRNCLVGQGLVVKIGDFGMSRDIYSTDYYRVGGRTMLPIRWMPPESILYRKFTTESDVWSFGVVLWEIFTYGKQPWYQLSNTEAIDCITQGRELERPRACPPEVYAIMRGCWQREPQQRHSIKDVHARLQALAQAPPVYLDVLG
Sequence of CSF1R (FMS) (P07333 20-972): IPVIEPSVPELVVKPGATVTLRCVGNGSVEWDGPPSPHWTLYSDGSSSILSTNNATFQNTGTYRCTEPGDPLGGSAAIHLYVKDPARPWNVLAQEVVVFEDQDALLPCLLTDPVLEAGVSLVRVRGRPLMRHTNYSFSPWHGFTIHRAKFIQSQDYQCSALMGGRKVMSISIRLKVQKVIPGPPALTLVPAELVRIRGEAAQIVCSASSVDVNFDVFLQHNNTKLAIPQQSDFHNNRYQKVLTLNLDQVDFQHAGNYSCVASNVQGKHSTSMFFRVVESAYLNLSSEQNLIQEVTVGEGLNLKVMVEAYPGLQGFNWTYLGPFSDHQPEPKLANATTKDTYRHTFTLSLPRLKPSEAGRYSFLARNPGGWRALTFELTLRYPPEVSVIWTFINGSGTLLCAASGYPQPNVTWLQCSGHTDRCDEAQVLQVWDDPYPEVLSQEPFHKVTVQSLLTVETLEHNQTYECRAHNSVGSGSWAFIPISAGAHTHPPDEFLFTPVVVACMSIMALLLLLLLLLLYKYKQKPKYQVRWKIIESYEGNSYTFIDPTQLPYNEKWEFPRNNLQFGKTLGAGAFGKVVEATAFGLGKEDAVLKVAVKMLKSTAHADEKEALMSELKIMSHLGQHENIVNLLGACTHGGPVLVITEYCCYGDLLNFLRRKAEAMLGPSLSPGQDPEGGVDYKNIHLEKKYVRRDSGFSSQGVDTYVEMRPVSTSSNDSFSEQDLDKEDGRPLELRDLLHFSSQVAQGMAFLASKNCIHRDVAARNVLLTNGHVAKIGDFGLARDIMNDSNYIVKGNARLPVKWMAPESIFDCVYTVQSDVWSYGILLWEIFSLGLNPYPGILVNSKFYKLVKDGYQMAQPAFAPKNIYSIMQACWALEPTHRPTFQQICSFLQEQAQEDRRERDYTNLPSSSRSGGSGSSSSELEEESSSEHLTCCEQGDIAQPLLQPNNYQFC

Regarding `CCc1cc(NC(=O)NCc2ccc(-c3cc(NC(=O)c4ccc(CN5CCN(C)CC5)cc4)[nH]n3)cc2)no1` [BPR1J-340, N1-(3-4-[([(5-ethyl-3-isoxazolyl)amino]carbonylamino)methyl]phenyl-1H-5-pyrazolyl)-4-[(4-methylpiperazino)methyl]benzamide], the inhibition at 0.1 µM against CSF1R (FMS) (100 nM) was 73%; against FLT3 D835Y (FLT3 D835Y, 100 nM), 78%; on NTRK1 (TRKA) (NTRK1 (TRKA), 100 nM), 89%. Besides, the IC50 at CSF1R (FMS) (Invitrogen SelectScreen kinase assay) turned out to be 0.078 µM; against FLT3 D835Y (FLT3-D835Y, Invitrogen SelectScreen kinase assay), 0.019 µM; on NTRK1 (TRKA) (TRKA, Invitrogen SelectScreen kinase assay), 0.008 µM. Also, the GI50 was found to be 6.57 µM in the experiment with A431; 8.34 µM with Detroit551; 2.61 µM in the experiment on H1975; 2.52 µM in the experiment on H2228; 2.47 µM in the experiment with HCC827; 9.33 µM in the experiment on HCT-116. In addition, the GI50 with Huh7 amounted to 9.74 µM; with K562, 6.37 µM; in the experiment with MCF-7, 11.3 µM; in the experiment on NCIH460, 13.2 µM; with RT4, 7.03 µM.
